Source: patent US5051438A, “Alkoxy-substituted dihydrobenzopyran-2-carboxylic acids and derivatives thereof, compositions and use” (G. D. Searle & Co., priority 1990, dated 1991)
pIC50: −log10 of the molar value.

Key:
[1] = test system: Human neutrophils; assay: Modified Boyden Chamber Chemotaxis, LTB4-induced; type: cell-based; details: 3×10^-8 M LTB4, 90 minutes, 37° C; for Relative Potency, Chemotaxis LTB4: potency relative to compound of Example 1(b), defined as 1.0
From the text: (§1) Neutrophils were purified from venous blood of normal human donors using standard techniques of dextran sedimentation, centrifugation on Ficoll-paque® (Pharmacia) or Histopaque® sterile solution (Sigma) and hypotonic lysis of erythrocytes (Boyum, A., Isolation of Leukocytes From Human Blood: Further Observations. Scand. J. Lab. Clin. Invest., 21 (Suppl. 97): 31, 1968). The purity of isolated neutrophils was >95%. […] A final cell suspension of 3.4×10^6 neutrophils/ml of HEPES-buffered Hanks' balanced salt solution (HBSS, pH 7.3) was added to the upper well (0.8 ml) of a modified Boyden chamber (blind well). […] Following a 90 minute incubation at 37° C. in 5% CO2 -95% air, cells from the lower well were lysed and nuclei counted in a Model S-Plus-IV Coulter Counter. Percent inhibition was calculated from cell counts corrected for random migration by subtracting the mean of the HBSS control. […] Pat. No. 4,889,871.

[2] = test system: Human neutrophils; assay: Modified Boyden Chamber Chemotaxis, fMLP-induced; type: cell-based; details: 1.0×10^-8 M fMLP, 90 minutes, 37° C; for Relative Potency, Chemotaxis fMLP: potency relative to compound of Example 1(b), defined as 1.0
From the text: as §1

[3] = molecular target: T1, LTB4 Receptor (Homo sapiens, UniProt Q15722); assay: LTB4 Receptor Binding Assay; details: potency relative to compound of Example 1(b), defined as 1.0; 0.6×10^-9 M (^3H) LTB4, human neutrophils, 0° C, 45 minutes
T1 construct: Neutrophils were purified from venous blood of normal human donors; endogenous in cells; host or cells: neutrophils from venous blood of normal human donors (>95% pure)
T1 sequence (Q15722 whole entry): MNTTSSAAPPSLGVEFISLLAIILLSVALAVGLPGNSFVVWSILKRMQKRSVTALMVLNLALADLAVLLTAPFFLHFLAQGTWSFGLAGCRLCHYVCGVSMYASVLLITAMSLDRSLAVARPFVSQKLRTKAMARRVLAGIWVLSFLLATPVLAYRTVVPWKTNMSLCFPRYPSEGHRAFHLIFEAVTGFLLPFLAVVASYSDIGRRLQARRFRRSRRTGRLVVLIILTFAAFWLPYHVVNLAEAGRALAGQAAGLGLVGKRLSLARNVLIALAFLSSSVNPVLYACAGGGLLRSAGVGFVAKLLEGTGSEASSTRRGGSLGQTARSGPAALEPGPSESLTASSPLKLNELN
Protocol: Neutrophils were purified from venous blood of normal human donors using standard techniques of dextran sedimentation, centrifugation on Ficoll-paque® (Pharmacia) or Histopaque® sterile solution (Sigma) and hypotonic lysis of erythrocytes (Boyum, A., Isolation of Leukocytes From Human Blood: Further Observations. Scand. J. Lab. Clin. Invest., 21 (Suppl. 97): 31, 1968). […] The incubation was carried out at 0° C. for 45 minutes and terminated by adding 5 ml of ice-cold HBSS followed by rapid filtration of incubation mixture under vacuum through GF/C glass fiber filters. The filters were further washed with 10 ml HBSS and radioactivity was determined. […] All data refer to specific binding. […] Pat. No. 4,889,871.

[4] = Homo sapiens, Neutrophil, 1.5 h, value in parentheses

| Structure (SMILES) | pIC50 [1, 4] | pIC50 [2, 4] | Relative Potency, Chemotaxis LTB4 [1] | Relative Potency, LTB4 Receptor Binding [3] | Relative Potency, Chemotaxis fMLP [2] |
| --- | --- | --- | --- | --- | --- |
| CCCc1c(OCCCOc2ccc(C(C)=O)c(OC)c2CCC)ccc2c1OC(C(=O)O)CC2 (centres unmarked) [Example 1(b), 7-[3-(4-acetyl-3-methoxy-2-propylphenoxy)propoxy]-3,4-dihydro-8-propyl-2H-1-benzopyran-2-carboxylic acid, reference compound] | 5.74 | 5.27 | – | – | – |
| CCCc1c(OCCCOc2ccc(-c3ccon3)c(OC)c2CCC)ccc2c1OC(C(=O)O)CC2 (centres unmarked) [Example 4, 3,4-Dihydro-7-[3-[4-(3-isoxazolyl)-3-methoxy-2-propylphenoxy]propoxy]-8-propyl-2H-1-benzopyran-2-carboxylic acid] | – | – | 0.25 | 0.70 | 0.37 |
| CCCc1c(OCCCOc2ccc(-c3cc[nH]n3)c(OC)c2CCC)ccc2c1OC(C(=O)O)CC2 (centres unmarked) [Example 6, 3,4-Dihydro-7-[3-[3-methoxy-2-propyl-4-(1H-pyrazol-3-yl)phenoxy]propoxy]-8-propyl-2H-1-benzopyran-2-carboxylic acid] | – | – | 0.66 | 0.88 | 0.35 |
